{"source": "patent US9737523B2", "about": "“Anti-fibrogenic compounds, methods and uses thereof” (priority 2013, dated 2017)", "key": {"[1]": {"tested_on": "MMP-1", "experiment": "MMP-1 expression in human dermal fibroblasts, Western blot", "assay_type": "cell-based"}, "[2]": {"tested_on": "splenocytes", "experiment": "ConA-induced splenocyte proliferation", "assay_type": "cell-based", "conditions": "for reduction in conA-induced splenocyte proliferation: 100 and 150 μg/ml"}, "[3]": {"tested_on": "MEK-ERK1/2 signaling pathway", "experiment": "Kynurenine-stimulated MMP-1 expression in dermal fibroblasts with MEK/ERK1/2 phosphorylation inhibitors", "assay_type": "cell-based, human", "conditions": "100 μg/ml kynurenine", "procedure": "Cells were harvested by Trypsin/EDTA and lysed with cell lysis buffer containing 50 mM Tris-HCl (pH7.40), 150 mM NaCl, 10 mM EDTA, 5 mM EGTA, 1% TritonX-100™, 0.5% Igepal CA-630, 0.025% NaN3 and protease inhibitor cocktail (Sigma™). Cell debris was removed by centrifugation at 20,000×g for 10 minutes. The protein concentration in supernatant was determined using the MicroBCA™ method (Pierce™, Rockford, Ill.). Proteins in supernatant were mixed with protein sample loading buffer (final concentration: 60 mM Tris-HCl (pH 6.80), 2% SDS, 10% glycerol, 1.5% β-mercaptoethanol, 0.002% bromophenol blue) and size fractioned by 10% of SDS-polyacrylamide gel. After proteins were transferred onto nitrocellulose membrane by iBlot™ (Invitrogen Life Technologies™), non-specific binding were blocked with phosphate buffer saline twenty 20 (PBS-T) containing 5% skim milk for 1 hour. The membrane was then incubated with primary antibody overnight. After incubation with a secondary antibody for 1 hour, protein bands were visualized by an enhanced chemiluminescence (ECL™) detection system (Santa Cruz Biotechnology™, Santa Cruz, Calif.). […]"}, "[4]": {"tested_on": "type 1 procollagen", "experiment": "Type 1 procollagen expression in dermal fibroblasts, Western blot", "assay_type": "cell-based, human", "conditions": "kynurenine analogues/metabolites, FIG. 10 bottom", "procedure": "(§1) Cell debris was removed by centrifugation at 20,000×g for 10 minutes. The protein concentration in supernatant was determined using the MicroBCA™ method (Pierce™, Rockford, Ill.). Proteins in supernatant were mixed with protein sample loading buffer (final concentration: 60 mM Tris-HCl (pH 6.80), 2% SDS, 10% glycerol, 1.5% β-mercaptoethanol, 0.002% bromophenol blue) and size fractioned by 10% of SDS-polyacrylamide gel. After proteins were transferred onto nitrocellulose membrane by iBlot™ (Invitrogen Life Technologies™), non-specific binding were blocked with phosphate buffer saline twenty 20 (PBS-T) containing 5% skim milk for 1 hour. The membrane was then incubated with primary antibody overnight. After incubation with a secondary antibody for 1 hour, protein bands were visualized by an enhanced chemiluminescence (ECL™) detection system (Santa Cruz Biotechnology™, Santa Cruz, Calif.). […] The secondary antibodies were either goat anti-mouse IgG (H+L) HPR conjugate or goat anti-rabbit IgG (H+L) HPR conjugate (Bio-rad Laboratory™ (Mississauga, ON, Canada). Secondary antibodies were used at a concentration of 1:3000."}, "[5]": {"tested_on": "MMP-3", "experiment": "MMP-3 expression in human dermal fibroblasts, Western blot", "assay_type": "cell-based", "procedure": "Cells were then harvested by trypsinization and western blot analysis was performed.\nas §1"}, "[6]": {"tested_on": "fibronectin", "experiment": "Fibronectin mRNA in human dermal fibroblasts, real-time PCR", "assay_type": "cell-based", "conditions": "various concentration"}, "[7]": {"conditions": "kynurenine isoforms, 50 μg/ml, 48 hours"}}}
{"compound": "N[C@@H](Cc1c[nH]c2ccccc12)C(=O)O", "note": "[tryptophan, reference compound]", "values": [{"measurement": "MMP-1 expression, presence of tryptophan versus tryptophan-depleted media", "setting": "[1]; 25 μg/ml tryptophan, 48 hrs", "result": "no significant difference"}, {"measurement": "MMP-1 expression", "setting": "[1]; various concentration of tryptophan, 48 hours", "result": "failed to increase"}]}
{"compound": "Nc1ccccc1C(=O)C[C@@H](N)C(=O)O", "note": "[D-kynurenine]", "values": [{"measurement": "MMP-1 expression", "setting": "[1]; [7]", "result": "increase"}, {"measurement": "reduction in conA-induced splenocyte proliferation", "setting": "[2]; after 48 hours", "result": "about 2 fold"}, {"measurement": "reduction in conA-induced splenocyte proliferation", "setting": "[2]; after 96 hours", "result": "~5", "unit": "fold"}]}
{"compound": "N#CC(=C(/N)Sc1ccccc1N)/C(C#N)=C(\\N)Sc1ccccc1N", "note": "[U0126]", "values": [{"measurement": "effect on up-regulation of MMP-1 expression by kynurenine", "setting": "[3]; to M and 30 μM of U0126", "result": "significantly reduced"}]}
{"compound": "O=C(O)c1cc(=O)c2ccccc2[nH]1", "note": "[kynurenic acid]", "values": [{"measurement": "expression of type 1 procollagen", "setting": "[4]", "result": "effective at inhibiting"}, {"measurement": "MMP-1 induction (general statement)", "setting": "[1]", "result": "induce"}, {"measurement": "MMP1 protein expression 48 hours after treatment removal", "setting": "[1]; 100 μg/ml for 48 hours, then 48 hours after removal", "result": "remained higher than controls"}, {"measurement": "MMP1 expression versus untreated cells after treatment removal", "setting": "[1]; 100 μg/ml for 48 hours, then another 24 hours after removal", "result": "remained significantly higher"}, {"measurement": "lasting effect on expression of MMP-1 relative to Kyn", "setting": "[1]; 100 μg/ml for 48 hours, then removal", "result": "longer lasting effect"}, {"measurement": "MMP1 expression", "setting": "[1]; 100 μg/ml, at 48 hours after treatment", "result": "marked increase"}, {"measurement": "MMP-3 induction (general statement)", "setting": "[5]", "result": "induce"}, {"measurement": "effect on splenocyte proliferation compared with other metabolites", "setting": "[2]", "result": "less effect"}, {"measurement": "reduction in conA-induced splenocyte proliferation", "setting": "[2]; after 96 hours", "result": "~5", "unit": "fold"}]}
{"compound": "Nc1ccccc1C(=O)C[C@H](N)C(=O)O", "note": "[L-kynurenine]", "values": [{"measurement": "activity on MMP-1 expression compared with the other isoforms", "setting": "[1]; 50 μg/ml, 48 hours", "result": "more activity compared to other two isoforms"}, {"measurement": "MMP-1 expression", "setting": "[1]; [7]", "result": "increase"}, {"measurement": "fibronectin expression (mRNA)", "setting": "[6]", "result": "capable of down-regulating"}, {"measurement": "reduction in conA-induced splenocyte proliferation", "setting": "[2]; after 48 hours", "result": "about 2 fold"}, {"measurement": "reduction in conA-induced splenocyte proliferation", "setting": "[2]; after 96 hours", "result": "~5", "unit": "fold"}]}
{"compound": "COc1cccc(-c2cc(=O)c3ccccc3o2)c1N", "note": "[PD98059]", "values": [{"measurement": "effect on kynurenine-stimulated MMP-1 expression", "setting": "[3]; various concentration of PD98059, dose-dependent", "result": "effectively prevented"}]}
{"compound": "O=C(O)c1cc(O)c2cccc(O)c2n1", "note": "[xanthurenic acid]", "values": [{"measurement": "expression of type 1 procollagen", "setting": "[4]", "result": "effective at inhibiting"}, {"measurement": "MMP-1 induction (general statement)", "setting": "[1]", "result": "induce"}, {"measurement": "MMP-3 induction (general statement)", "setting": "[5]", "result": "induce"}]}
